# In patent publication US20080063668A1, “Nitroimidazole and terconazole composition and method” (priority 2006, published 2008):
# Key:
# Test in all cases: Inhibition of bacteria growth, drug dilution tubes, anaerobic
# Format in all cases: cell-based
# Set-up in all cases: key to growth: (+) for growth; (−) for no growth; (±) for suboptimal growth after an initial observation of growth
# Atopobium vaginae BAA-55 = system: Atopobium vaginae BAA-55
# Procedure: (§1) Serial dilutions of tinidazole and terconazole were prepared by adding measured amounts of each substance to water (both individually and in combination). Seven bacterial organisms that are common pathogens in bacterial vaginosis were grown anaerobically in the medium as listed in Table 4 under a N2/H2/CO2 (85:5:10) head space atmosphere. [table] These cultures were diluted to a 0.5 McFarland standard prior to inoculation of drug dilution tubes. One (1) mL of the 0.5 McFarland preparation was inoculated to an anaerobically prepared test tube containing 0.8 mL of Difco anaerobic medium (DAMM) and 0.2 mL of appropriate diluted antimicrobial or antimicrobial combination for a total of 2 mL. The inoculated tubes were then incubated at 37° C. and monitored daily for growth. Growth was scored with a (+) for growth, (−) for no growth, and (±) for suboptimal growth after an initial observation of growth. Tinidazole is abbreviated as TNZ and terconazole is abbreviated as TER in Tables 5 through 11.
# [1] = system: Gardnerella vaginalis ATCC 14019
# Procedure: as §1
# [2] = system: Mobiluncus mulieris ATCC 35243
# Procedure: as §1
compound,measurement,setting,value
"CCS(=O)(=O)CCn1c([N+](=O)[O-])cnc1C [TNZ, 1-[2-(ethylsulfonyl)ethyl]-2-methyl-5-nitroimidazole]",growth,"Atopobium vaginae BAA-55; TNZ 2 μg/ml, DAY 1",(+)
same,growth,"Atopobium vaginae BAA-55; TNZ 2 μg/ml, DAY 2",(+)
same,growth,"Atopobium vaginae BAA-55; TNZ 2 μg/ml, DAY 3",(+)
same,growth,"Atopobium vaginae BAA-55; TNZ 2 μg/ml, DAY 4",(+)
same,growth,"Atopobium vaginae BAA-55; TNZ 2 μg/ml, DAY 5",(+)
same,growth,"Atopobium vaginae BAA-55; TNZ 3.9 μg/ml, DAY 1",(+)
same,growth,"Atopobium vaginae BAA-55; TNZ 3.9 μg/ml, DAY 2",(+)
same,growth,"Atopobium vaginae BAA-55; TNZ 3.9 μg/ml, DAY 3",(+)
same,growth,"Atopobium vaginae BAA-55; TNZ 3.9 μg/ml, DAY 4",(+)
same,growth,"Atopobium vaginae BAA-55; TNZ 3.9 μg/ml, DAY 5",(+)
same,growth,"Atopobium vaginae BAA-55; TNZ 7.8 μg/ml, DAY 1",(+)
same,growth,"Atopobium vaginae BAA-55; TNZ 7.8 μg/ml, DAY 2",(+)
same,growth,"Atopobium vaginae BAA-55; TNZ 7.8 μg/ml, DAY 3",(+)
same,growth,"Atopobium vaginae BAA-55; TNZ 7.8 μg/ml, DAY 4",(+)
same,growth,"Atopobium vaginae BAA-55; TNZ 7.8 μg/ml, DAY 5",(+)
same,growth,"Atopobium vaginae BAA-55; TNZ 15.6 μg/ml, DAY 1",(−)
same,growth,"Atopobium vaginae BAA-55; TNZ 15.6 μg/ml, DAY 2",(+)
same,growth,"Atopobium vaginae BAA-55; TNZ 15.6 μg/ml, DAY 3",(+)
same,growth,"Atopobium vaginae BAA-55; TNZ 15.6 μg/ml, DAY 4",(+)
same,growth,"Atopobium vaginae BAA-55; TNZ 15.6 μg/ml, DAY 5",(+)
same,growth,"Atopobium vaginae BAA-55; TNZ 31.3 μg/ml, DAY 1",(−)
same,growth,"Atopobium vaginae BAA-55; TNZ 31.3 μg/ml, DAY 2",(+)
same,growth,"Atopobium vaginae BAA-55; TNZ 31.3 μg/ml, DAY 3",(+)
same,growth,"Atopobium vaginae BAA-55; TNZ 31.3 μg/ml, DAY 4",(+)
same,growth,"Atopobium vaginae BAA-55; TNZ 31.3 μg/ml, DAY 5",(+)
same,growth,"Atopobium vaginae BAA-55; TNZ 62.5 μg/ml, DAY 1",(−)
same,growth,"Atopobium vaginae BAA-55; TNZ 62.5 μg/ml, DAY 2",(+)
same,growth,"Atopobium vaginae BAA-55; TNZ 62.5 μg/ml, DAY 3",(+)
same,growth,"Atopobium vaginae BAA-55; TNZ 62.5 μg/ml, DAY 4",(+)
same,growth,"Atopobium vaginae BAA-55; TNZ 62.5 μg/ml, DAY 5",(+)
same,growth,"Atopobium vaginae BAA-55; TNZ 125 μg/ml, DAY 1",(−)
same,growth,"Atopobium vaginae BAA-55; TNZ 125 μg/ml, DAY 2",(+)
same,growth,"Atopobium vaginae BAA-55; TNZ 125 μg/ml, DAY 3",(+)
same,growth,"Atopobium vaginae BAA-55; TNZ 125 μg/ml, DAY 4",(+)
same,growth,"Atopobium vaginae BAA-55; TNZ 125 μg/ml, DAY 5",(+)
same,growth,"Atopobium vaginae BAA-55; TNZ 250 μg/ml, DAY 1",(−)
same,growth,"Atopobium vaginae BAA-55; TNZ 250 μg/ml, DAY 2",(+)
same,growth,"Atopobium vaginae BAA-55; TNZ 250 μg/ml, DAY 3",(+)
same,growth,"Atopobium vaginae BAA-55; TNZ 250 μg/ml, DAY 4",(+)
same,growth,"Atopobium vaginae BAA-55; TNZ 250 μg/ml, DAY 5",(+)
same,growth,"Atopobium vaginae BAA-55; TNZ 500 μg/ml, DAY 1",(−)
same,growth,"Atopobium vaginae BAA-55; TNZ 500 μg/ml, DAY 2",(−)
same,growth,"Atopobium vaginae BAA-55; TNZ 500 μg/ml, DAY 3",(+)
same,growth,"Atopobium vaginae BAA-55; TNZ 500 μg/ml, DAY 4",(+)
same,growth,"Atopobium vaginae BAA-55; TNZ 500 μg/ml, DAY 5",(+)
same,growth,"[1]; TNZ 2 μg/ml, DAY 1",(+)
same,growth,"[1]; TNZ 2 μg/ml, DAY 2",(+)
same,growth,"[1]; TNZ 2 μg/ml, DAY 3",(+)
same,growth,"[1]; TNZ 2 μg/ml, DAY 4",(+)
same,growth,"[1]; TNZ 2 μg/ml, DAY 5",(+)
same,growth,"[1]; TNZ 3.9 μg/ml, DAY 1",(+)
same,growth,"[1]; TNZ 3.9 μg/ml, DAY 2",(+)
same,growth,"[1]; TNZ 3.9 μg/ml, DAY 3",(+)
same,growth,"[1]; TNZ 3.9 μg/ml, DAY 4",(+)
same,growth,"[1]; TNZ 3.9 μg/ml, DAY 5",(+)
same,growth,"[1]; TNZ 7.8 μg/ml, DAY 1",(+)
same,growth,"[1]; TNZ 7.8 μg/ml, DAY 2",(+)
same,growth,"[1]; TNZ 7.8 μg/ml, DAY 3",(+)
same,growth,"[1]; TNZ 7.8 μg/ml, DAY 4",(+)
same,growth,"[1]; TNZ 7.8 μg/ml, DAY 5",(+)
same,growth,"[1]; TNZ 15.6 μg/ml, DAY 1",(+)
same,growth,"[1]; TNZ 15.6 μg/ml, DAY 2",(+)
same,growth,"[1]; TNZ 15.6 μg/ml, DAY 3",(+)
same,growth,"[1]; TNZ 15.6 μg/ml, DAY 4",(+)
same,growth,"[1]; TNZ 15.6 μg/ml, DAY 5",(+)
same,growth,"[1]; TNZ 31.3 μg/ml, DAY 1",(+)
same,growth,"[1]; TNZ 31.3 μg/ml, DAY 2",(+)
same,growth,"[1]; TNZ 31.3 μg/ml, DAY 3",(+)
same,growth,"[1]; TNZ 31.3 μg/ml, DAY 4",(+)
same,growth,"[1]; TNZ 31.3 μg/ml, DAY 5",(+)
same,growth,"[1]; TNZ 62.5 μg/ml, DAY 1",(+)
same,growth,"[1]; TNZ 62.5 μg/ml, DAY 2",(+)
same,growth,"[1]; TNZ 62.5 μg/ml, DAY 3",(+)
same,growth,"[1]; TNZ 62.5 μg/ml, DAY 4",(+)
same,growth,"[1]; TNZ 62.5 μg/ml, DAY 5",(+)
same,growth,"[1]; TNZ 125 μg/ml, DAY 1",(+)
same,growth,"[1]; TNZ 125 μg/ml, DAY 2",(+)
same,growth,"[1]; TNZ 125 μg/ml, DAY 3",(+)
same,growth,"[1]; TNZ 125 μg/ml, DAY 4",(+)
same,growth,"[1]; TNZ 125 μg/ml, DAY 5",(+)
same,growth,"[1]; TNZ 250 μg/ml, DAY 1",(+)
same,growth,"[1]; TNZ 250 μg/ml, DAY 2",(+)
same,growth,"[1]; TNZ 250 μg/ml, DAY 3",(+)
same,growth,"[1]; TNZ 250 μg/ml, DAY 4",(+)
same,growth,"[1]; TNZ 250 μg/ml, DAY 5",(+)
same,growth,"[1]; TNZ 500 μg/ml, DAY 1",(+)
same,growth,"[1]; TNZ 500 μg/ml, DAY 2",(+)
same,growth,"[1]; TNZ 500 μg/ml, DAY 3",(+)
same,growth,"[1]; TNZ 500 μg/ml, DAY 4",(+)
same,growth,"[1]; TNZ 500 μg/ml, DAY 5",(+)
same,growth,"[2]; TNZ 2 μg/ml, DAY 1",(+)
same,growth,"[2]; TNZ 2 μg/ml, DAY 2",(+)
same,growth,"[2]; TNZ 2 μg/ml, DAY 3",(+)
same,growth,"[2]; TNZ 2 μg/ml, DAY 4",(+)
same,growth,"[2]; TNZ 2 μg/ml, DAY 5",(+)
same,growth,"[2]; TNZ 3.9 μg/ml, DAY 1",(+)
same,growth,"[2]; TNZ 3.9 μg/ml, DAY 2",(+)
same,growth,"[2]; TNZ 3.9 μg/ml, DAY 3",(+)
same,growth,"[2]; TNZ 3.9 μg/ml, DAY 4",(+)
same,growth,"[2]; TNZ 3.9 μg/ml, DAY 5",(+)
same,growth,"[2]; TNZ 7.8 μg/ml, DAY 1",(+)
same,growth,"[2]; TNZ 7.8 μg/ml, DAY 2",(+)
same,growth,"[2]; TNZ 7.8 μg/ml, DAY 3",(+)
same,growth,"[2]; TNZ 7.8 μg/ml, DAY 4",(+)
same,growth,"[2]; TNZ 7.8 μg/ml, DAY 5",(+)
same,growth,"[2]; TNZ 15.6 μg/ml, DAY 1",(−)
same,growth,"[2]; TNZ 15.6 μg/ml, DAY 2",(−)
same,growth,"[2]; TNZ 15.6 μg/ml, DAY 3",(−)
same,growth,"[2]; TNZ 15.6 μg/ml, DAY 4",(+)
same,growth,"[2]; TNZ 15.6 μg/ml, DAY 5",(+)
same,growth,"[2]; TNZ 31.3 μg/ml, DAY 1",(−)
same,growth,"[2]; TNZ 31.3 μg/ml, DAY 2",(−)
same,growth,"[2]; TNZ 31.3 μg/ml, DAY 3",(−)
same,growth,"[2]; TNZ 31.3 μg/ml, DAY 4",(+)
same,growth,"[2]; TNZ 31.3 μg/ml, DAY 5",(+)
same,growth,"[2]; TNZ 62.5 μg/ml, DAY 1",(−)
same,growth,"[2]; TNZ 62.5 μg/ml, DAY 2",(−)
same,growth,"[2]; TNZ 62.5 μg/ml, DAY 3",(−)
same,growth,"[2]; TNZ 62.5 μg/ml, DAY 4",(−)
same,growth,"[2]; TNZ 62.5 μg/ml, DAY 5",(−)
same,growth,"[2]; TNZ 125 μg/ml, DAY 1",(−)
same,growth,"[2]; TNZ 125 μg/ml, DAY 2",(−)
same,growth,"[2]; TNZ 125 μg/ml, DAY 3",(−)
same,growth,"[2]; TNZ 125 μg/ml, DAY 4",(−)
same,growth,"[2]; TNZ 125 μg/ml, DAY 5",(−)
same,growth,"[2]; TNZ 250 μg/ml, DAY 1",(−)
same,growth,"[2]; TNZ 250 μg/ml, DAY 2",(−)
same,growth,"[2]; TNZ 250 μg/ml, DAY 3",(−)
same,growth,"[2]; TNZ 250 μg/ml, DAY 4",(−)
same,growth,"[2]; TNZ 250 μg/ml, DAY 5",(−)
same,growth,"[2]; TNZ 500 μg/ml, DAY 1",(−)
same,growth,"[2]; TNZ 500 μg/ml, DAY 2",(−)
same,growth,"[2]; TNZ 500 μg/ml, DAY 3",(−)
same,growth,"[2]; TNZ 500 μg/ml, DAY 4",(−)
same,growth,"[2]; TNZ 500 μg/ml, DAY 5",(−)
